Source: patent US20100055712A1, “Oligopeptides for treatment of osteoporosis and other bone diseases and methods therefor” (Washington University, priority 2008, published 2010)
*1 amine or outer side, *2 acyl side, *3 side chain or, on linkers, in order; H or OH if unused. Where a SMILES comes first, the peptide text is derived from it. [ ]: non-standard residue; d: D form. The star is where a group is joined. X1 = CC(N[*:1])C(=O)C(F)(F)C(=O)[*:2]; Boc = CC(C)(C)OC(=O)*

system: LRP1 expression in WT MEF cells; test: LRP1 expression in WT MEF cells after treatment with γ-secretase inhibitors (western blot); format: cell-based, mouse; settings: FIGS. 5I and 5J
Text: The requirement of γ-secretase activity in LRP1 regulation was further verified by two alternative approaches.

SMILES	LRP1 expression
C[C@H](NC(=O)Cc1cc(F)cc(F)c1)C(=O)N[C@H](C(=O)OC(C)(C)C)c1ccccc1 [DAPT]	enhanced LRP1 expression
CCC(C)C(NC(=O)C(NC(=O)OC(C)(C)C)C(C)C)C(=O)NC(C)C(=O)C(F)(F)C(=O)NC(C(=O)NC(C(=O)OC)C(C)CC)C(C)C (stereo not drawn) [DFK, DFK167] (Boc-VI[X1]VI-OMe; configuration not given here)	enhanced LRP1 expression
CC(C)C[C@H](NC(=O)[C@H](Cc1ccccc1)C[C@@H](O)[C@H](Cc1ccccc1)NC(=O)OC(C)(C)C)C(=O)N[C@@H](Cc1ccccc1)C(N)=O [L685,458]	enhanced LRP1 expression
